The values below are quoted from earlier work in patent publication EP1844782A1 (priority 2006, dated 2007).

This data set relates to EAE. The settings on record: EAE (Craner et al., 2005).

As to `O=C1NC(=O)C(c2ccccc2)(c2ccccc2)N1` [phenytoin], the “ameliorates the inflammatory cell infiltrate in EAE” value is on record as 75%.
